Assay [1] deals with T1, mouse P2RY14 (Mus musculus, UniProt Q9ESG6).
T1 construct: expressed in transfected cells
T1 sequence (Q9ESG6 1-338): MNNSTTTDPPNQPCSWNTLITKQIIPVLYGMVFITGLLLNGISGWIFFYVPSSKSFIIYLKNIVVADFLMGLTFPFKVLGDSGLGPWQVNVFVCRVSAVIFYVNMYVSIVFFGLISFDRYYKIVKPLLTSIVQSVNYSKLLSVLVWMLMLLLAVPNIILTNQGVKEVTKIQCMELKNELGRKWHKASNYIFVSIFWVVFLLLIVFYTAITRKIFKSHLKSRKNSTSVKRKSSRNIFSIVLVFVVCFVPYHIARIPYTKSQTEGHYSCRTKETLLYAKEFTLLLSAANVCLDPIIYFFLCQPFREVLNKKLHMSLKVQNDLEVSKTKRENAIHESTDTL
Description: FLIPR whole cell Ca2+ agonist assay, HEK cells expressing mouse P2RY14 and Gqi5. Type of assay: cell-based. An excerpt: (§1) Stable HEK clonal cell lines expressing P2RY14 and the chimeric G protein Gqi5 were constructed. The chimeric Gqi5 forces the coupling of P2RY14 through the Gq (calcium) pathway and allows for monitoring of calcium signaling using a calcium binding fluorescent dye and a FLIPR (fluorometric imaging plate reader, MDS Sciex). Vector pCEP4 comprising the chimeric Gqi5 was obtained from Molecular Devices, Sunnyvale, Calif. (Cat. No. RD-PGQI5).
The nucleic acid encoding the mouse P2RY14 was under the control of the CMV promoter.
(§2) Cells were grown in DMEM medium containing 25 mM HEPES, pH 7.4 and 10% FBS, 50 units/ml penicillin/50 μg/ml streptomycin, 2 mM glutamine and 1 mM sodium pyruvate at 37° C. in humidified air containing 5% CO2. Two days post-transfection, cells were grown under selection in the DMEM medium as indicated above and supplemented with 200 μg/ml Hygromycin B and 250 μg/ml geneticin.
(§3) Cells were incubated overnight at 37° C. and 5% CO2 to form a monolayer. On the following day, 30 μl of fluorescent no-wash dye was added to the cell monolayer and the plate was incubated for 60 minutes at 37° C., 5% CO2.
(§4) For agonist assays, 6.12 μl of 10× agonist solution was added to the cell/dye incubation and Ca^2+ signaling was monitored by FLIPR. For antagonist assays, 250 nl of compound in 100% DMSO was added to cell/dye mixture; following a 20 minute incubation at room temperature, 6.12 μl of 10× agonist solution at EC80 in HBSS containing 20 mM Hepes was added to cells and Ca^2+ signaling was monitored by FLIPR. Quantitation of the % stimulation or inhibition of Ca^2+ signaling by agonist or antagonist, respectively, was calculated using the Max-Min fluorescent signal detected.

The subject of assay [2] is simian (chimpanzee) P2RY14. Put plainly: CellKey System live cell functional assay, simian P2RY14. Type of assay: cell-based. The following applies: HEK cells expressing simian P2RY14 and Gqi5. How it is done:
(§5) The Cellkey System™ (MDS Sciex), a novel, live cell, label-free, real-time technology, was used to examine P2RY14 activation following agonist stimulation. The CellKey System™ is based on cellular dielectric spectroscopy (CDS) and monitors changes in impedance of the applied electrical current through the cell monolayer upon receptor activation.
(§6) On the following day, growth medium was removed from the cell monolayer and replaced with 135 μl of HBSS pH 7.4 containing 20 mM Hepes for a 30 minutes pre-incubation period at room temperature. Baseline measurements were made for 5 minutes at 28° C. prior to ligand addition. For agonist assays, 15 μl of 10× agonist diluted in HBSS pH 7.4 containing 20 mM HEPES was added to the cell monolayer simultaneously using the 96 multichannel head from the CellKey™ System. Cellular response was monitored for 10 minutes to assess cellular response after ligand addition.

Assay [3] concerns simian (chimpanzee) P2RY14. Description: FLIPR whole cell Ca2+ agonist assay, HEK cells expressing simian (chimpanzee) P2RY14 and Gqi5. Type of assay: cell-based.
Source text: as §1
The simian (chimpanzee) P2RY14 nucleic acid fragment was synthesized based upon the Ensembl Gene ID ENSPTRG00000030093 by Bio S & T, Montreal, Quebec, Canada, to be flanked with KpnI and NotI restriction enzyme sites. […] The DNA fragment was digested with KpnI and NotI and then cloned into a pcDEF3 vector previously digested with KpnI and NotI to place the DNA fragment in the proper orientation downstream of the human EF-1a promoter. The nucleic acid encoding the simian P2RY14 was under the control of the human EF-1a promoter.
as §2, §3, §4

The target of assay [4] is T2, P2RY14 (Homo sapiens, UniProt Q15391).
T2 sequence (Q15391 1-338): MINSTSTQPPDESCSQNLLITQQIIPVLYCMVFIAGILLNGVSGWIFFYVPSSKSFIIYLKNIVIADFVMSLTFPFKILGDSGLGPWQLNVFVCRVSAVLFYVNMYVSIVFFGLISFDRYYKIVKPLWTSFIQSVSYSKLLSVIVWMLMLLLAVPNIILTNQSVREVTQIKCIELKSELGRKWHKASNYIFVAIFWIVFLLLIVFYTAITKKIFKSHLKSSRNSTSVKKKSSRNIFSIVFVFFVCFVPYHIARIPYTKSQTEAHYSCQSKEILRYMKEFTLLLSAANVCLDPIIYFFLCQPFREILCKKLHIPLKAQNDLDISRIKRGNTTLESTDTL
Also on record: host or cells: yeast and HEK-293 cells (Chambers et al., J. Biol. Chem. 275: 10767-10771 (2000)). The following applies: yeast and mammalian cells, Chambers et al. 2000; cited from earlier work.

The target in assay [5] is T2, P2RY14. Description: CellKey System live cell functional assay, human P2RY14. Type of assay: cell-based. Also on record: expressed in transfected cells. The following applies: HEK cells expressing human P2RY14 and Gqi5. As to the method: as §5, §6
Assay [6] relates to HEK cells not expressing P2RY14. Description: FLIPR Ca2+ release in HEK cells not expressing P2RY14 (specificity). It is filed as cell-based.
In assay [7] the target is T1, mouse P2RY14. Description: CellKey System live cell functional assay, mouse P2RY14. The following applies: HEK cells expressing mouse P2RY14 and Gqi5. It is filed as cell-based. How it is done:
as §5, §6

The target in assay [8] is T2, P2RY14. Description: FLIPR whole cell Ca2+ agonist assay, HEK cells expressing human P2RY14 and Gqi5. It is filed as cell-based. Also on record: expressed in transfected cells. The following applies: for activation of P2RY14 (Ca2+ signaling): HEK cells expressing human P2RY14 and Gqi5, FLIPR.
Source text: as §1
The human P2RY14 was PCR amplified from the I.M.A.G.E. clone obtained from Invitrogen, Carlsbad, Calif. […] The codon encoding glutamate at position 54 in the wild-type human P2RY14 was changed to code for lysine. […] The PCR reaction was done in two parts. In the first part, the reaction was 5 cycles at 94° C. for 30 seconds, 65° C. for 30 seconds, and 72° C. for 90 seconds. In the second part, the reaction was 25 cycles at 94° C. for 30 seconds, 70° C. for 30 seconds, 72° C. for 90 seconds. The last cycle was followed by 7 minutes at 72° C. The PCR amplified human P2RY14 was digested with KpnI and NotI and cloned into a pcDNA3.1 (+) vector previously digested with KpnI and NotI to place the DNA fragment in the proper orientation downstream of the CMV promoter. The nucleic acid encoding the human P2RY14 was under the control of the CMV promoter.
as §2, §3, §4

Assay [9] has as its system simian P2RY14. Description: Membrane filtration binding assay, simian P2RY14. Also on record: species or system chimpanzee. The note with it: HEK cells expressing simian P2RY14, membrane filtration. How it is done: Membrane preparations were made by N2 cavitation using a Parr unit. […] Cell were Dounce homogenized (size B, 10 strokes) and then added to the cavitation unit. Pressure was adjusted to 800 psi and cells were left under pressure for 30 minutes. Broken cells were released drop by drop and spun at 1000 g for 10 minutes. Supernatent was spun at 160,000 g (rotor type 60 Ti, 40000 rpm for 30 min). Pellet was resuspended in 10 mM HEPES/KOH pH 7.4, 1 mM EDTA in ⅕ the original volume, dounce homogenized (size A, 10 strokes), aliquoted, and frozen at −80° C.
Binding assays were performed in 10 mM Hepes pH 7.4 (KOH), 5 mM MnCl2, 5 mM MgCl2 buffer. Membranes (10 μg/well for human P2RY14 and 30 μg/well for simian P2RY14) were incubated with 10 nM [5.6-^3H] Uridine 5′-triphosphate (UTP), ammonium salt from Amersham Biosciences (# TRK412) in presence of compounds diluted in DMSO (2% final in assay), in a total volume of 100 μl. 50 minutes (human P2RY14) or 60 minutes (simian) P2RY14) incubations were performed at room temperature with shaking. […] To examine the stability of [^3H]-UTP in the membrane filtration binding assay, 100 ul aliquots of the reaction mixture were extracted at 2, 10, 20, 40, 60 and 90 minutes with 100 uL of cold 80 mM EDTA solution (pH 8) and 200 uL of cold Acetonitrile. After mixing, proteins were precipitated by centrifugation at 13000 rpm for 10 minutes at 4° C. […] After 0.5 min at 10:90 50 mM KH2PO4/750 mM KH2PO4, a gradient was applied in order to increase to 100% 750 mM KH2PO4 at 5 min, after which this composition was maintained for an additional 3 min. Samples were kept at 4° C. prior to HPLC analysis

For `O=c1ccn([C@@H]2O[C@H](COP(=O)(O)OP(=O)(O)OP(=O)(O)O)[C@@H](O)[C@H]2O)c(=O)[nH]1` [UTP, Uridine 5′-triphosphate], the “activation of P2RY14 (Ca2+ signaling)” value in [1], in assay [3] and in [8] was “activated” in each case. For the same molecule, the “P2RY14 signaling (impedance, CellKey)” value in [2], in [5] and in [7] was “mediated signaling” throughout. Besides, the “activation of P2RY14” value in [4] was “unable to activate”. In addition, the “Ca2+ release in cells not expressing P2RY14” value in assay [6] is reported as “able to stimulate Ca^2+ release in a dose-dependent manner”. For the same molecule, the “Ca2+ response as compared to UDP-glucose and UMP” value in assay [8] (HEK cells expressing human P2RY14) is on record as “much larger Ca^2+ response”.
As for [^3H]-UMP, in [9], the “specific binding window as radioligand” value is “no specific binding window”.
Turning to `Nc1ncnc2c1ncn2[C@@H]1O[C@H](COP(=O)(O)OP(=O)(O)O[C@H]2O[C@H](CO)[C@@H](O)[C@H](O)[C@H]2O)[C@@H](O)[C@H]1O` [ADP-glucose], in assay [4], the “activation of P2RY14” value is “unable to activate”.
`CC(=O)N[C@H]1[C@@H](OP(=O)(O)OP(=O)(O)OC[C@H]2O[C@@H](n3ccc(=O)[nH]c3=O)[C@H](O)[C@@H]2O)O[C@H](CO)[C@@H](O)[C@@H]1O` [UDP-N-acetylglucosamine]: the “activation of P2RY14 (Ca2+ signaling)” value in [1], in assay [3] and in assay [8] was “activated” throughout. Also, the “P2RY14 signaling (impedance, CellKey)” value in assay [2], in assay [5] and in assay [7] was “mediated signaling” in each case. The “activation of P2RY14” value in assay [4] is “able to activate”.
Take `O=P(O)(O)OP(=O)(O)OC[C@H]1O[C@@H](n2cnc3c(O)ncnc32)[C@H](O)[C@@H]1O` [inosine diphosphate]: the “activation of P2RY14 (Ca2+ signaling)” value in assay [1], in assay [3] and in [8] was “activated” throughout.
In the case of `O=C(O)[C@H]1O[C@H](OP(=O)(O)OP(=O)(O)OC[C@H]2O[C@@H](n3ccc(=O)[nH]c3=O)[C@H](O)[C@@H]2O)[C@H](O)[C@@H](O)[C@@H]1O` [UDP-glucuronic acid], the “activation of P2RY14 (Ca2+ signaling)” value in [1], in assay [3] and in assay [8] was “activated” throughout. The “P2RY14 signaling (impedance, CellKey)” value in assay [2], in assay [5] and in [7] was “mediated signaling” in each case. Besides, the “activation of P2RY14” value in [4] is on record as “able to activate”.

Values taken from patent US20090148850A1, “Methods for identifying modulators of P2RY14” (priority 2007, published 2009).
